Assay results: US8492341B2, “Amyloid-β binding peptides” (Alzyme Pty Ltd., priority 2006, dated 2013)

Legend:
[1] = In vitro peptide stability in 10% rodent brain homogenate; format: in vitro ADME, rat
Protocol: For the peptide stability assay in vitro, both 15merTNP and peptide analogue MP2 were incubated separately with fresh 10% rodent brain homogenate to model degradation in tissues. In order to create a physiological dose of peptide in the in vitro assay, both radioactive (^3H-labelled; hot) and non-radioactive (cold) peptides were combined in a set ratio. Cold peptide was added at a dose of […] per ml of 10% brain homogenate. Hot peptide was added at a dose of 250 μCi per ml 10% brain homogenate. Following the addition of hot and cold peptide; the homogenate was vortexed and incubated for different time points. The reaction was stopped by adding complete protease inhibitor cocktail and the samples analysed.
The biological stability of the peptides was evaluated by incubating them (90 nmol) in fresh 10% rodent brain homogenate for different times at 37° C. The amount of intact peptide was estimated by running the supernatant of the homogenate on a 16% Tricine gel to separate peptide that had not had its amino acid sequence degraded. FIG. 3 illustrates the relative stability of 15merTNP and peptide analogue MP2 over two hours run on a 16% Tricine gel from time 0-120 min with samples run in duplicate. The values correspond to the in vitro half-life, which is defined as the time needed for 50% degradation of the peptide.

[2] = tested on: PS/APP transgenic mice; assay: Efficacy study: i.c.v. infusion in PS/APP transgenic mice, Aβ and GFAP immunohistochemistry; format: in vivo; conditions: 6-month-old PS/APP mice, 28 days, vs Vehicle (PBS)
Text: Peptide analogue MP2 [Ac-Asn-Arg-Thr-Pro-Gln-Met-Leu-Lys-Arg-NH2 (SEQ ID NO:2)] was delivered directly into the brain by i.c.v administration. For i.c.v infusion into the cerebrospinal fluid, a cannula is inserted into the right lateral ventricle of the brain (antero-posterior: −0.3 mm; medium-line: −1 mm; dorso-ventral: −2.2 mm) of 3-month and 6-month old PS/APP transgenic mice using a Kopf (Tujunga, Calif.) stereotaxic instrument (Permanne et al., 2002 “Reduction of amyloid load and cerebral damage in a transgenic mouse model of Alzheimer's disease by treatment with a β-sheet breaker peptide” FASEB J.).
The coordinates are measured from the Bregma and the surface of the skull according to the brain atlas of Franklin and Paxinos (The Mouse Brain in Stereotaxic Coordinates (1997) Academic Press, San Diego). […]
For immunohistochemistry, tissue sections are cut and series of sections processed for peroxidase immunohistochemistry with antibodies specific for beta amyloid (1-42) and astrocytic activation (GFAP). […] Reactive astrocytes (forming a halo around Aβ deposits) were detected using antibody GFAP (1:500 dilution in DAKO antibody diluent; polyclonal, DAKO); Aβ detected using affinity purified WO2 antibody (1:10,000 dilution in Tris buffer (pH 7.6); raised against amino acid residues 5-8 of human Aβ, monoclonal). […]

[3] = tested on: M17 Neuroblastoma cells; assay: MTS cell viability assay, cell death induced by human Aβ1-42 (40 μM); format: cell-based
Protocol: M17 Neuroblastoma cells were seeded in a 48 well plate at a density of 50,000 cells per well. The plate was incubated for 24 hours at 37° C. in media (OPTI-MEM) containing 10% FCS. The next day the cells were treated with human Aβ1-42 (40 μM) in the presence or absence of the peptides 15merTNP or peptide analogue MP2 (FIG. 2). The peptides were provided at concentrations ranging from 20-400 μM prepared in Neuro basal media containing B27 supplement without antioxidants. Following incubation (4 days at 37° C.), cell viability was assessed using the CellTiter 96® AQueous One Solution cell proliferation assay (MTS; Promega, Wis., USA) as per manufactures instructions. Briefly, 200 μl of MTS reagent (1/10 dilution) was added directly to the culture wells and the plate incubated for 3 hours at 37° C. Following incubation, 150 μl of the solution was transferred to a 96 well plate and the absorbance is determined spectrophotometrically at 490 nm.
Similar to the MTT assay, the MTS assay is a colorimetric method for determining the number of viable cells in proliferation or cytotoxicity assays. The principle of the MTS assay is the same as the MTT assay, except for the tetrazolium compound that is bio-reduced by the mitochondria of the cells, forming a coloured formazan product that is soluble (rather than insoluble for the MTT assay) in tissue culture medium. This conversion is accomplished by NADPH or NADH produced by dehydrogenase enzymes in metabolically active cells: Berridge M V. And Tan A. S. (1993) Characterisation of the cellular reduction of 3-(4,5-dimethylthiazol-2-yl)-2,5-diphenyltetrazolium bromide (MTT): Subcellular localisation, substrate dependence and involvement of mitochondrial electron transport in MTT reduction. Arch. Biochem. Biophys. 303, 474-82.
The effect of human Aβ1-42 (40 μM) on cell viability was determined in triplicate in each of the 10 MTS assays (i.e. n=30) performed in this study. All data are presented as means±SEM.
The effect of peptide analogue MP2 to protect against human Aβ42-induced toxicity was then determined using the MTS assay in triplicate in two separate experiments for all doses (i.e. n=6), unless otherwise specified. The effectiveness of MP2 was compared against the 15merTNP.

[4] = tested on: human Aβ42; assay: MTS cell viability assay of MP2 analogues, cells treated with human Aβ42 (20 μM); format: cell-based; conditions: peptide 80-400 μM
Protocol: FIG. 7 illustrates the effect of various peptide analogues of the peptide analogue of SEQ ID NO:2 on cell viability associated with human Aβ1-42. Cells were treated with human Aβ42 peptide (20 μM) in the absence or presence of increasing doses of MP2, MP4, MP5 or MP6 (n=6, for each peptide). Cell viability was assessed by the MTS assay.
Cells were treated with human Aβ42 peptide (20 μM) in the absence or presence of increasing doses of MP2, MP4, MP5 or MP6 (n=6, for each peptide). Cell viability was assessed by the MTS assay.

## Ac-NRTPQMLKR-NH2 [MP2, Ac-Asn-Arg-Thr-Pro-Gln-Met-Leu-Lys-Arg-NH2]
[1]; 10% brain homogenate, 37° C., listed as Peptide analogue MP2
  Stability in rat brain homogenate (in vitro half-life): >24 h
[1]; 10% rodent brain homogenate, 24 hour time period
  stability relative to 15merTNP: significantly more stable
[1]; rat, fresh 10% brain homogenate, 10% brain homogenate, 37° C.
  half-life at 2.5 mmol per ml: > 1440 min
[2]; 60 nmoles daily i.c.v.
  reduction in the estimated total number of Aβ immunoreactive deposits: 26.4%
[2]; 60 nmoles/day i.c.v.
  total number of GFAP immunoreactive halos: reduction in the total number of GFAP immunoreactive halos, although significance was only reached in the middle and posterior cortical regions
[3]; Aβ1-42 40 μM
  maximum reduction in cell toxicity associated with human Aβ1-42: around 15%
[3]; peptide concentration ≧200 μM, P<0.05
  effect on cell death associated with human Aβ1-42: significantly reduced cell death
[3]; peptide concentrations ≦80 μM
  effect on cell death associated with human Aβ1-42: no effect
[4]
  cell viability following treatment with human Aβ42: significantly increased
